Activity calls are given as the source filed them. No cut-off for these calls is given here.
Key:
in vivo = settings: NMRI albino, mouse, iv
Description: Acute toxicity in iv dosed NMRI albino mouse assessed as lethality up to 24 hrs

Mus musculus [1] = species: Mus musculus; test: animal or person; settings: NMRI, Hypothalamus, ip
Mus musculus [2] = species: Mus musculus; test: animal or person; settings: NMRI, ip
Mus musculus [3] = species: Mus musculus
Description: Mydriatic effect in iv dosed NMRI albino mouse assessed as concentration required to increase pupil diameter by 200%

Mus musculus [4] = species: Mus musculus; test: animal or person; settings: NMRI, Hypothalamus, ip; remark: listed apart in the source
Mus musculus [5] = species: Mus musculus; test: animal or person; settings: NMRI, Hypothalamus, ip; remark: listed apart in the source
Mus musculus [6] = test: Antidepressant activity in NMRI albino mouse assessed as hyperactivity by measuring sniffing at 20 mg/kg, ip after 2 hrs relative to vehicle-treated control; assay type: functional, organism-based; parameters: dose 20 mg/kg
Mus musculus [7] = test: Antidepressant activity in NMRI albino mouse assessed as hyperactivity by measuring repetitive movements of head at 20 mg/kg, ip after 2 hrs relative to vehicle-treated control; assay type: functional, organism-based; parameters: dose 20 mg/kg
Mus musculus [8] = test: Antidepressant activity in NMRI albino mouse assessed as increase in locomotion at 20 mg/kg, ip after 2 hrs relative to vehicle-treated control; assay type: functional, organism-based; parameters: dose 20 mg/kg
Mus musculus [9] = test: Antidepressant activity in NMRI albino mouse assessed as hyperactivity by measuring irritability at 20 mg/kg, ip after 2 hrs relative to vehicle-treated control; assay type: functional, organism-based; parameters: dose 20 mg/kg
Mus musculus [10] = test: Antidepressant activity in NMRI albino mouse assessed as hyperactivity by measuring tremor at 20 mg/kg, ip after 2 hrs relative to vehicle-treated control; assay type: functional, organism-based; parameters: dose 20 mg/kg
Mus musculus [11] = test: Antidepressant activity in NMRI albino mouse assessed as hyperactivity by measuring rearing at 20 mg/kg, ip after 2 hrs relative to vehicle-treated control; assay type: functional, organism-based; parameters: dose 20 mg/kg
[12] = biological target: Sodium-dependent noradrenaline transporter (Mus musculus, UniProt O55192)
Chain of Sodium-dependent noradrenaline transporter (O55192 whole entry): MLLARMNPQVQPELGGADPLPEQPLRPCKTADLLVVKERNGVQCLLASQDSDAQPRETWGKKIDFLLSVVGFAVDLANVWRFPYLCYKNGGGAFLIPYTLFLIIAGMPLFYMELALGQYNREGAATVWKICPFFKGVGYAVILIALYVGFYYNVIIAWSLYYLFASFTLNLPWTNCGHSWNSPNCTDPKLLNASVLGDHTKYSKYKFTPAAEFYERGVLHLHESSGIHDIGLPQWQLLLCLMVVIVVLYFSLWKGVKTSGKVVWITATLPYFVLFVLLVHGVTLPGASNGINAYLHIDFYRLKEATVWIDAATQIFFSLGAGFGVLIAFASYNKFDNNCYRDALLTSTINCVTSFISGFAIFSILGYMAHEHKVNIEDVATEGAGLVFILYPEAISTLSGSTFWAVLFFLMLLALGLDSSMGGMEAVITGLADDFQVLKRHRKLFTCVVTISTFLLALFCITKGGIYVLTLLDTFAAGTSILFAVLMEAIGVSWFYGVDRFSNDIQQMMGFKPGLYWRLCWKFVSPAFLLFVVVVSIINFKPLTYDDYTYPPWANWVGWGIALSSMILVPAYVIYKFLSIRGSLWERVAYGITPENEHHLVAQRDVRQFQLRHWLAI
Description: Inhibition of noradrenaline transporter in NMRI albino mouse brain assessed as [3H]NA accumulation in hypothalamus after 5 mins

Mus musculus [13] = test: Antidepressant activity in NMRI albino mouse assessed as hyperactivity by measuring circling of head at 20 mg/kg, ip after 2 hrs relative to vehicle-treated control; assay type: functional, organism-based; parameters: dose 20 mg/kg
Mus musculus [14] = test: Antidepressant activity in NMRI albino mouse assessed as hyperactivity by measuring motor excitation at 20 mg/kg, ip after 2 hrs relative to vehicle-treated control; assay type: functional, organism-based; parameters: dose 20 mg/kg
[15] = biological target: Sodium-dependent serotonin transporter (Mus musculus, UniProt Q60857)
Chain of Sodium-dependent serotonin transporter (Q60857 whole entry): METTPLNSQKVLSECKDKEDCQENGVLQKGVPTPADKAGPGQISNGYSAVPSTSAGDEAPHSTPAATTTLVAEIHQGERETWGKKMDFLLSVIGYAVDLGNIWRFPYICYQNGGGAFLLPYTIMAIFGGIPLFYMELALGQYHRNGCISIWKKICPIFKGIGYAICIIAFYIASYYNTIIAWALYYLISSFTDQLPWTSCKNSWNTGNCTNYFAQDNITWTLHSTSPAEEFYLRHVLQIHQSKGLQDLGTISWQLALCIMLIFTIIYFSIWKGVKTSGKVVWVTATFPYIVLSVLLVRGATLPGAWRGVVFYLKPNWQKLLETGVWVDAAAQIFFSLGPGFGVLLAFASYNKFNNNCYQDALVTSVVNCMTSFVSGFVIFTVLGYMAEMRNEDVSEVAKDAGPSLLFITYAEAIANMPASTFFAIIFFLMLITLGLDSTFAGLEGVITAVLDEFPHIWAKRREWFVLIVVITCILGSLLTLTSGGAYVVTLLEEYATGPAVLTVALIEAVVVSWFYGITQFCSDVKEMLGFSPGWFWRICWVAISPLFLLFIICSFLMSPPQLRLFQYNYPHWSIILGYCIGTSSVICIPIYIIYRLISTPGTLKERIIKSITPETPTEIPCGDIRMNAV

Mus musculus [16] = test: Induction of hyperactivity in NMRI albino mouse at 20 mg/kg, ip in presence of reserpine; assay type: functional, organism-based; parameters: dose 20 mg/kg
Mus musculus [17] = test: Induction of hyperactivity in NMRI albino mouse at 20 mg/kg, ip in presence of pimozide; assay type: functional, organism-based; parameters: dose 20 mg/kg
Mus musculus [18] = test: Induction of hyperactivity in NMRI albino mouse at 20 mg/kg, ip in presence of methergoline; assay type: functional, organism-based; parameters: dose 20 mg/kg
Mus musculus [19] = test: Induction of hyperactivity in NMRI albino mouse at 20 mg/kg, ip in presence of alpha-methyltyrosine; assay type: functional, organism-based; parameters: dose 20 mg/kg
Mus musculus [20] = test: Induction of hyperactivity in NMRI albino mouse at 20 mg/kg, ip in presence of phenoxybenzamine; assay type: functional, organism-based; parameters: dose 20 mg/kg

CN(C)CCCN1c2ccccc2CCc2ccc(Cl)cc21 [CLOMIPRAMINE]
LD50 at 24 h (in vivo): 142 µmol/kg | ED50 (Mus musculus [1]): > 113 µmol/kg | ED50 (Mus musculus [2]): 8 µmol/kg | PD200 (Mus musculus [3]): 6 µmol/kg | ED50 (Mus musculus [4]): 109 µmol/kg | ED50 (Mus musculus [5]): 20 µmol/kg

CNC1CC(c2ccccc2)(c2ccccc2)C1.Cl
Activity (Mus musculus [6]): Active | LD50 at 24 h (in vivo): 128 µmol/kg | ED50 (Mus musculus [1]): 91 µmol/kg | Activity (Mus musculus [7]): Active | Activity (Mus musculus [8]): Active | Activity (Mus musculus [9]): Active | Activity (Mus musculus [10]): Active | ED50 (Mus musculus [2]): 9 µmol/kg | Activity (Mus musculus [11]): Active | IC50 [12]: 800 nM | Activity (Mus musculus [13]): Active | PD200 (Mus musculus [3]): 9 µmol/kg | Activity (Mus musculus [14]): Active | IC50 [15]: 3000 nM | ED50 (Mus musculus [4]): 31 µmol/kg | ED50 (Mus musculus [5]): 95 µmol/kg

Cl.NC1CC(c2ccccc2)(c2ccccc2)C1
Activity (Mus musculus [6]): Active | LD50 at 24 h (in vivo): 192 µmol/kg | ED50 (Mus musculus [1]): > 154 µmol/kg | Activity (Mus musculus [7]): Active | Activity (Mus musculus [8]): Active | Activity (Mus musculus [9]): Active | Activity (Mus musculus [10]): Active | ED50 (Mus musculus [2]): > 38 µmol/kg | Activity (Mus musculus [11]): Active | IC50 [12]: 2200 nM | Activity (Mus musculus [13]): Active | PD200 (Mus musculus [3]): 15 µmol/kg | Activity (Mus musculus [14]): Active | IC50 [15]: 2800 nM | ED50 (Mus musculus [4]): 103 µmol/kg | ED50 (Mus musculus [5]): 162 µmol/kg

CN(C)C1CC(c2ccccc2)(c2ccccc2)C1.Cl
Activity (Mus musculus [16]): inactive | Activity (Mus musculus [6]): Active | LD50 at 24 h (in vivo): 104 µmol/kg | ED50 (Mus musculus [1]): 104 µmol/kg | Activity (Mus musculus [7]): Active | Activity (Mus musculus [8]): Active | Activity (Mus musculus [9]): Active | Activity (Mus musculus [10]): Active | ED50 (Mus musculus [2]): 17 µmol/kg | Activity (Mus musculus [11]): Active | IC50 [12]: 800 nM | Activity (Mus musculus [13]): Active | Activity (Mus musculus [17]): inactive | PD200 (Mus musculus [3]): 24 µmol/kg | Activity (Mus musculus [14]): Active | IC50 [15]: 900 nM | ED50 (Mus musculus [4]): 32 µmol/kg | Activity (Mus musculus [18]): Active | Activity (Mus musculus [19]): Active | Activity (Mus musculus [20]): Active | ED50 (Mus musculus [5]): 48 µmol/kg
